From ChEMBL document CHEMBL3714766, “Tetrahydroisoquinoline compounds and their use as pyruvate dehydrogenase kinase inhibitors” (2015) come the findings set out here.

SMILES strings stand for the structures.

This assay concerns the target Pyruvate dehydrogenase kinase (Homo sapiens, UniProt Q15119+Q15120+Q16654+Q15118). The experiment in a line: Binding affinity to pyruvate dehydrogenase kinase (unknown origin) by VER-00160364 probe based fluorescence polarization assay. A general note: In fluorescence polarisation assays a small probe gives low polarisation when free and higher when bound to something large.
`Cc1c(Cl)nc(Cl)nc1-c1ccc2c(c1)CC[C@H](C)N2C(=O)c1ccc(O)cc1O`: the IC50 is recorded as 100 nM.

Compound `Cc1nc(-c2ccc3c(c2)CC[C@H](C)N3C(=O)c2ccc(O)cc2O)c2ccccc2n1` displayed an IC50 of 100 nM.

`Cc1nc(N(C)C)nc(-c2ccc3c(c2)CC[C@H](C)N3C(=O)c2ccc(O)cc2O)c1C` showed an IC50 of 1000 nM.

As for `Nc1ccc2c(c1)CCCN2C(=O)c1ccc(O)cc1O`, the IC50 was found to be 100 nM.

With `Cc1cnc(Cl)nc1-c1ccc2c(c1)CC[C@H](C)C2C(=O)c1ccc(O)cc1O` (some centres not stated), the IC50 worked out at 10 nM.

As for `CC1CCc2cc(C(=O)N(C)c3cccc(F)c3)ccc2N1C(=O)c1ccc(O)cc1O` (configuration not stated), the IC50 is on record as 100 nM.

`C[C@H]1CCc2cc(-c3nc4cc(Cl)ccc4o3)ccc2N1C(=O)c1ccc(O)cc1O` yielded an IC50 of 10000 nM.

Turning to `C[C@H]1CCc2cc(-c3nc(-c4ccsc4)nc4ccccc34)ccc2N1C(=O)c1ccc(O)cc1O`, the IC50 came out at 1000 nM.

`Cc1nc(N)ccc1-c1ccc2c(c1)CC[C@H](C)N2C(=O)c1ccc(O)cc1O` yielded an IC50 of 100 nM.

For `C[C@@H]1CCc2cc(F)ccc2N1C(=O)c1ccc(O)cc1O`, the IC50 was found to be 1000 nM.

Regarding `CC(c1cc2ccccc2o1)N(C)C(=O)c1ccc2c(c1)CCC(C)N2C(=O)c1ccc(O)cc1O` (configuration not stated), the IC50 was 100 nM.

The compound `O=C(c1ccc(O)cc1O)N1CCCc2cc(F)ccc21` had an IC50 of 100 nM.

`Cc1nc(C)c(-c2ccc3c(c2)CCCN3C(=O)c2ccc(O)cc2O)s1` returned an IC50 of 100 nM.

`CCc1cnc(C)nc1-c1ccc2c(c1)CC[C@H](C)N2C(=O)c1ccc(O)cc1O` came in with an IC50 of 100 nM.

Compound `COc1ccc(CN(C)C(=O)c2ccc3c(c2)CCC(C)N3C(=O)c2ccc(O)cc2O)cc1OC` (configuration not stated) gave an IC50 of 100 nM.

On to `CC1CCc2cc(C(=O)N(C)Cc3cnn(C)c3)ccc2N1C(=O)c1ccc(O)cc1O` (configuration not stated), for which the IC50 is recorded as 100 nM.

`Cc1cc(S(=O)(=O)NCc2cccnc2)cnc1-c1ccc2c(c1)CC[C@H](C)N2C(=O)c1ccc(O)cc1O` displayed an IC50 of 10 nM.

The compound `COc1ccc(OC)c(-c2ccc3c(c2)CC[C@H](C)N3C(=O)c2ccc(O)cc2O)c1` returned an IC50 of 1000 nM.

For `CN(CCNC(=O)OC(C)(C)C)C(=O)c1ccc2c(c1)CCCN2C(=O)c1ccc(O)cc1O`, the IC50 was 1000 nM.

In turn, `CC1CCc2cc(C(=O)N(C)CC(F)(F)F)ccc2N1C(=O)c1cc(Cl)c(O)cc1O` (configuration not stated) returned an IC50 of 100 nM.

In turn, `CC1CCc2cc(C(=O)N(C)Cc3ccc(Cl)cc3)ccc2N1C(=O)c1ccc(O)cc1O` (configuration not stated) gave an IC50 of 10 nM.

On to `C[C@H]1CCc2cc(-c3ccc(N)nn3)ccc2N1C(=O)c1ccc(O)cc1O`, for which the IC50 was 100 nM.

In turn, `NC(=O)COc1ccc2c(c1)CCCN2C(=O)c1ccc(O)cc1O` displayed an IC50 of 1000 nM.

Turning to `Cc1cc(S(=O)(=O)NCc2ccn(C)n2)cnc1-c1ccc2c(c1)CC[C@H](C)N2C(=O)c1ccc(O)cc1O`, the IC50 is on record as 100 nM.

In turn, `CC(=O)Nc1ccc(-c2ccc3c(c2)CC[C@H](C)N3C(=O)c2ccc(O)cc2O)c(C)c1` returned an IC50 of 100 nM.

Consider `O=C(c1ccc2c(c1)CCCN2C(=O)c1ccc(O)cc1O)N1CCCCC1`, for which the IC50 came out at 100 nM.

Take `C[C@H]1CCc2cc(C(=O)N(C)Cc3ccc(Cl)cc3)ccc2N1C(=O)c1ccc(O)cc1O`: the IC50 is on record as 100 nM.

`O=C(c1ccc(O)cc1O)N1CCCc2cc(Br)ccc21` displayed an IC50 of 1000 nM.

Take `CC1CCc2cc(C(=O)N(C)Cc3cccnc3)ccc2N1C(=O)c1ccc(O)cc1O` (configuration not stated): the IC50 came to 100 nM.

`CC1CCc2cc(-c3nccn3C)ccc2N1C(=O)c1cc(Cl)c(O)cc1O` (configuration not stated) showed an IC50 of 1000 nM.

For the compound `C[C@H]1CCc2cc(-c3cc4cncnc4[nH]3)ccc2N1C(=O)c1ccc(O)cc1O`, the IC50 was determined as 10 nM.

`CC1CCc2cc(C(=O)N3Cc4ccccc4C3)ccc2N1C(=O)c1ccc(O)cc1O` (configuration not stated) returned an IC50 of 100 nM.

On to `C[C@H]1CCc2cc(F)ccc2N1C(=O)c1cc(Cl)c(O)cc1O`, for which the IC50 is reported as 100 nM.

As for `CC1CCc2cc(-c3ccnn3C)ccc2N1C(=O)c1ccc(O)cc1O` (configuration not stated), the IC50 is listed as 100 nM.

For `CCc1nccnc1-c1ccc2c(c1)CC[C@H](C)N2C(=O)c1ccc(O)cc1O`, the IC50 was found to be 100 nM.

Take `Cc1nc(NS(C)(=O)=O)ccc1-c1ccc2c(c1)CC[C@H](C)N2C(=O)c1ccc(O)cc1O`: the IC50 was 100 nM.

`Cn1ccnc1-c1ccc2c(c1)CCCN2C(=O)c1ccc(O)cc1O` had an IC50 of 1000 nM.

In the case of `C[C@H]1CCc2cc(C(=O)N(C)Cc3cccc4c3ccc[n+]4C)ccc2N1C(=O)c1ccc(O)cc1O`, the IC50 is 100 nM.

As to `C[C@H]1CCc2cc(C(=O)N3CCN(C(=O)OC(C)(C)C)CC3)ccc2N1C(=O)c1ccc(O)cc1O`, the IC50 was 1000 nM.

`Cc1cc(S(=O)(=O)N2CC(F)(F)C2)cnc1-c1ccc2c(c1)CC[C@H](C)N2C(=O)c1ccc(O)cc1O`: the IC50 came out at 10 nM.

`CC1CCc2cc(C(=O)N(C)Cc3cc4ccccc4[nH]3)ccc2N1C(=O)c1ccc(O)cc1O` (configuration not stated): the IC50 is given as 100 nM.

`CC1CCc2cc(F)ccc2N1C(=O)c1ccc(O)cc1O` (configuration not stated) showed an IC50 of 100 nM.

For the compound `C[C@H]1CCc2cc(C(=O)N(C)Cc3cccnc3)ccc2N1C(=O)c1ccc(O)cc1O`, the IC50 was determined as 100 nM.

As to `Cc1cc2ccc(F)cc2nc1-c1ccc2c(c1)CCC(c1cccnc1)N2C(=O)c1ccc(O)cc1O` (configuration not stated), the IC50 came out at 10 nM.

As for `C[C@@H]1CCc2ccccc2N1C(=O)c1ccc(O)cc1O`, the IC50 came out at 10000 nM.

As to `C[C@H]1CCc2cc(C(=O)N(C)Cc3ccnc4ccccc34)ccc2N1C(=O)c1ccc(O)cc1O`, the IC50 is 10 nM.

With `Cc1cnc(C)c(-c2ccc3c(c2)CCC(c2cccnc2)N3C(=O)c2ccc(O)cc2O)n1` (configuration not stated), the 50% inhibitory concentration (IC50) is given as 10 nM.

Take `Cc1n[nH]c(C)c1C1CCc2ccccc2N1C(=O)c1ccc(O)cc1O` (configuration not stated): the IC50 amounted to 1000 nM.

As for `C[C@H]1CCc2cc(-c3ccc(N4CCOCC4)nn3)ccc2N1C(=O)c1ccc(O)cc1O`, the IC50 was 1000 nM.

The compound `CC1CCc2cc(-c3occc3C#N)ccc2N1C(=O)c1ccc(O)cc1O` (configuration not stated) registered an IC50 of 1000 nM.

With `CC1CCc2cc(C(=O)N(C)Cc3ccc(Cl)c(Cl)c3)ccc2N1C(=O)c1ccc(O)cc1O` (configuration not stated), the IC50 stood at 100 nM.

In turn, `C[C@H]1CCc2cc(-c3ncnc4ccc(Cl)cc34)ccc2N1C(=O)c1ccc(O)cc1O` gave an IC50 of 100 nM.

Take `Cc1cc(S(=O)(=O)N2CCC(F)(F)CC2)cnc1-c1ccc2c(c1)CC[C@H](C)N2C(=O)c1ccc(O)cc1O`: the IC50 is 100 nM.

Consider `Cc1cc(S(=O)(=O)N(C)C)cnc1-c1ccc2c(c1)CC[C@H](C)N2C(=O)c1ccc(O)cc1O`, for which the IC50 turned out to be 10 nM.

`COc1ccccc1-c1ccc2c(c1)CC[C@H](C)N2C(=O)c1ccc(O)cc1O` registered an IC50 of 100 nM.

`C[C@H]1CCc2cc(C(=O)N(C)Cc3ccc[n+](C)c3)ccc2N1C(=O)c1ccc(O)cc1O` yielded an IC50 of 100 nM.

As for `Cc1cccnc1-c1ccc2c(c1)CCC(CNS(C)(=O)=O)N2C(=O)c1ccc(O)cc1O` (configuration not stated), the IC50 came to 100 nM.

Compound `CC1CCc2cc(C(=O)N(C)CCc3ccccn3)ccc2N1C(=O)c1ccc(O)cc1O` (configuration not stated) showed an IC50 of 100 nM.

Consider `Cc1cnc(NC(C)C)nc1-c1ccc2c(c1)CC[C@H](C)N2C(=O)c1ccc(O)cc1O`, for which the IC50 came out at 100 nM.

`Cc1cc(-c2ccc3c(c2)CC[C@H](C)N3C(=O)c2ccc(O)cc2O)cnc1Cl` registered an IC50 of 1000 nM.

The compound `COc1cc2ncnc(-c3ccc4c(c3)CC[C@H](C)N4C(=O)c3ccc(O)cc3O)c2cc1OC` displayed an IC50 of 1000 nM.

Take `Cc1cccnc1-c1ccc2c(c1)CCCN2C(=O)c1ccc(O)cc1O`: the IC50 was found to be 1000 nM.

The compound `Cc1cnc(OCCN(C)C)nc1-c1ccc2c(c1)CC[C@H](C)N2C(=O)c1ccc(O)cc1O` came in with an IC50 of 100 nM.

The compound `CCc1cc(C(=O)N2c3ccc(F)cc3CCC2C)c(O)cc1O` (configuration not stated) came in with an IC50 of 10000 nM.

Turning to `CN(C)C(=O)c1ccc2c(c1)CCCN2C(=O)c1ccc(O)cc1O`, the IC50 was found to be 100 nM.

Regarding `C[C@H]1CCc2cc(-c3ccc(N4CCCC4)nn3)ccc2N1C(=O)c1ccc(O)cc1O`, the IC50 is 100 nM.

The compound `COc1ccc2nc(-c3ccc4c(c3)CC[C@H](C)N4C(=O)c3ccc(O)cc3O)c(C)cc2c1` displayed an IC50 of 100 nM.

In turn, `Cc1cc(CNc2ccc(-c3ccc4c(c3)CC[C@H](C)N4C(=O)c3ccc(O)cc3O)c(C)n2)on1` came in with an IC50 of 100 nM.

Compound `Cc1cncnc1-c1ccc2c(c1)CC[C@H](C)N2C(=O)c1ccc(O)cc1O` gave an IC50 of 100 nM.

Turning to `CC1CCc2ccccc2N1C(=O)c1ccc(O)cc1O` (configuration not stated), the IC50 came out at 100 nM.

Regarding `C[C@H]1CCc2cc(-c3ccc(Cl)cc3Cl)ccc2N1C(=O)c1ccc(O)cc1O`, the IC50 came to 1000 nM.

`CCc1nccnc1-c1ccc2c(c1)CCC(c1cccnc1)N2C(=O)c1ccc(O)cc1O` (configuration not stated) came in with a half-maximal inhibitory concentration (IC50) of 10 nM.

In turn, `CCOc1ccc2nc(-c3ccc4c(c3)CC[C@H](C)N4C(=O)c3ccc(O)cc3O)c(C)cc2c1` came in with a half-inhibitory concentration (IC50) of 1000 nM.

For `C[C@H]1CCc2cc(-c3cc4nccnc4cn3)ccc2N1C(=O)c1ccc(O)cc1O`, the IC50 turned out to be 100 nM.

Compound `C[C@H]1CCc2cc(-c3ncncc3C#N)ccc2N1C(=O)c1ccc(O)cc1O` showed an IC50 of 100 nM.

Compound `COC(=O)c1ccc2c(c1)CCCN2C(=O)c1ccc(O)cc1O` gave an IC50 of 1000 nM.

As to `Cc1cc(S(=O)(=O)N2CCCCC2)cnc1-c1ccc2c(c1)CC[C@H](C)N2C(=O)c1ccc(O)cc1O`, the IC50 is 10 nM.

`Cc1ccc(-c2ccc3c(c2)CC[C@H](C)N3C(=O)c2ccc(O)cc2O)c(Cl)c1` displayed an IC50 of 1000 nM.

`CC1CCc2cc(-c3ncccc3C(F)(F)F)ccc2N1C(=O)c1ccc(O)cc1O` (configuration not stated) came in with an IC50 of 100 nM.

As for `Cc1cc(S(=O)(=O)N2CCCC2)cnc1-c1ccc2c(c1)CC[C@H](C)N2C(=O)c1ccc(O)cc1O`, the IC50 came to 100 nM.

Turning to `C[C@H]1CCc2cc(C(=O)N(C)CC(F)(F)F)ccc2N1C(=O)c1ccc(O)cc1O`, the IC50 is 100 nM.

In turn, `CC1CCc2cc(C(=O)N(C)Cc3ccc(Cl)cc3)ccc2N1C(=O)c1cc(Cl)c(O)cc1O` (configuration not stated) had a half-maximal inhibitory concentration (IC50) of 100 nM.

As a reminder, the IC50 is the concentration that inhibits the measured activity by half.
